The source of these data is patent publication US9493446B2, “Orexin receptor antagonists which are [ortho bi-(hetero-)aryl]-[2-(meta bi-(hetero-)aryl)-pyrrolidin-1-yl]-methanone derivatives” (Actelion Pharmaceuticals Ltd, priority 2012, dated 2016).

What is called pIC50 is the IC50 on a negative log10 scale, so that one unit is a factor of ten.

pIC50: −log10 of the molar value. Where two headings read alike, the source gives them in different places.

For assay [1], the target named is orexin-1 (Homo sapiens (Human), UniProt O43613). Kind of assay: Intracellular calcium measurement (FLIPR), CHO cells expressing human orexin-1 receptor, 3 nM orexin-A. The format is cell-based. The conditions noted are these: read-out: IC50 OX1. In outline:
(§1)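 Fluo-4 AM-loaded CHO cells; antagonist preincubation 120 min, then 3 nM orexin-A (final) in HBSS/0.1% BSA/20 mM HEPES. FLIPR read at 1 s intervals; peak height vs. agonist-plus-vehicle control → IC50.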
(Calcium assays in cells follow changes in intracellular calcium, usually with a dye or a luminescent sensor.)

Assay [2] deals with human orexin-2 receptor (Homo sapiens (Human), UniProt O43614). Kind of assay: Intracellular calcium measurement (FLIPR), CHO cells expressing human orexin-2 receptor, 3 nM orexin-A. It is filed as cell-based. The note with it: read-out: IC50 OX2. The essentials:
as §1

[3] abbreviates: CHO cells expressing human orexin-1 receptor, FLIPR, 3 nM orexin-A, geometric mean if determined several times.
[4] abbreviates: CHO cells expressing human orexin-2 receptor, FLIPR, 3 nM orexin-A, geometric mean if determined several times.

Sequence of orexin-1 (O43613 whole entry): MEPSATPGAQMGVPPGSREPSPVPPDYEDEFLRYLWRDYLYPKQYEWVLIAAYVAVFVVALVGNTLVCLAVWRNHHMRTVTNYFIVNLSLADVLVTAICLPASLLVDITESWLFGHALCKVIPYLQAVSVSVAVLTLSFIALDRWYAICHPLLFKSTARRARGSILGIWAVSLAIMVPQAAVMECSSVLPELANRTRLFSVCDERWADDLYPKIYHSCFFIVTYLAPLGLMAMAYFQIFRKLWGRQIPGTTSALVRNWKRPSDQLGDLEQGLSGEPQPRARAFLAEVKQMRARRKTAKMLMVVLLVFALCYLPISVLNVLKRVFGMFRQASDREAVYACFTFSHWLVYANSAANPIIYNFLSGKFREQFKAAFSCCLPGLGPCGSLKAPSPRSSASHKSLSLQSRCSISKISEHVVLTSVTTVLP
Sequence of human orexin-2 receptor (O43614 whole entry): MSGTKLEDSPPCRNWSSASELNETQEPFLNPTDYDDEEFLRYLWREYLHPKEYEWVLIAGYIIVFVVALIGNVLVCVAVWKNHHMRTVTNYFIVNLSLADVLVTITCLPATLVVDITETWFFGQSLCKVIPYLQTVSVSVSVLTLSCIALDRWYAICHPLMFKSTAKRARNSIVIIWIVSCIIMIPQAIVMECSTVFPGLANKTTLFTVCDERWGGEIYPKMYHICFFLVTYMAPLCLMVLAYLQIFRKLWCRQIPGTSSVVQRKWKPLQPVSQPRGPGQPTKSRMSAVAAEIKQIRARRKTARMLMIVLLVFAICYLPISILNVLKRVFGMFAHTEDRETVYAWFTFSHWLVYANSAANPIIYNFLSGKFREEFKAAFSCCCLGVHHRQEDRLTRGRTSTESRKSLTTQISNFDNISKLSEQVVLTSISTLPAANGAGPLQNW

For the compound `Cc1cc(C(=O)N2CCC[C@H]2c2nc(-c3cccc(Cl)c3C)no2)c(-n2cccn2)cc1C` [compound 115], the pIC50 in assay [1] (setting [3]) is 7.11; in assay [2] (setting [4]), 8.22.

Take `Cc1c(Cl)cccc1-c1noc([C@@H]2CCCN2C(=O)c2cc(F)ccc2-c2ccn[nH]2)n1` [compound 116]: the pIC50 in assay [1] (setting [3]) is 6.34; in assay [2] (setting [4]) it was 7.47.

`Cc1c(Cl)cccc1-c1noc([C@@H]2CCCN2C(=O)c2cccc(F)c2-c2ccn[nH]2)n1` [compound 117]: the pIC50 in assay [1] is 6.68; in assay [2] (setting [4]), 8.30.

Regarding `COc1ccc(C(=O)N2CCC[C@H]2c2nc(-c3cccc(Cl)c3C)no2)c(-n2nccn2)c1` [compound 118], the negative-log IC50 (pIC50) is 6.59 in assay [1] and 7.32 in assay [2].

With `Cc1cc(C)c(-n2nccn2)c(C(=O)N2CCC[C@H]2c2nc(-c3cccc(Cl)c3C)no2)c1` [compound 119], the pIC50 in assay [1] (setting [3]) was 6.73; in assay [2], 7.62.

For `Cc1c(Cl)cccc1-c1noc([C@@H]2CCCN2C(=O)c2ccccc2-c2ncco2)n1` [compound 120], the negative-log IC50 (pIC50) in assay [1] (setting [3]) was 6.32; in assay [2], 7.43.

For `Cc1c(Cl)cccc1-c1noc([C@@H]2CCCN2C(=O)c2ccc(Cl)cc2-n2nccn2)n1` [compound 121], the pIC50 was 6.84 in assay [1] and 7.82 in assay [2] (setting [4]).

Regarding `Cc1c(Cl)cccc1-c1noc([C@@H]2CCCN2C(=O)c2ccc(C(F)(F)F)cc2-n2nccn2)n1` [compound 122], the pIC50 in assay [1] was 6.03; in assay [2] (setting [4]) it was 6.66.

Regarding `Cc1nc(C(=O)N2CCC[C@H]2c2nc(-c3cccc(Cl)c3C)no2)c(-c2cccc(F)c2)s1` [compound 123], the negative-log IC50 (pIC50) in assay [1] (setting [3]) was 6.88; in assay [2] (setting [4]), 6.95.

As to `Cc1nc(C(=O)N2CCC[C@H]2c2nc(-c3cccc(Cl)c3C)no2)c(-c2ccccc2F)s1` [compound 124], the figures for the pIC50 in assay [1] (setting [3]) and in assay [2] (setting [4]) were 6.84 and 7.11, respectively.

In the case of `Cc1nc(C(=O)N2CCC[C@H]2c2nc(-c3cccc(Cl)c3C)no2)c(-c2ccc(F)cc2)s1` [compound 125], the pIC50 in assay [1] (setting [3]) was 6.45; in assay [2] (setting [4]) it was 7.10.

On to `Cc1cccc(-c2sc(C)nc2C(=O)N2CCC[C@H]2c2nc(-c3cccc(Cl)c3C)no2)c1` [compound 126], for which the values for the pIC50 in assay [1] (setting [3]) and in assay [2] (setting [4]) were 6.66 and 6.93, respectively.

Regarding `Cc1ncc(C(=O)N2CCC[C@H]2c2nc(-c3cccc(Cl)c3C)no2)c(-c2cccc(Cl)c2)n1` [compound 127], the pIC50 in assay [1] (setting [3]) is 6.24; in assay [2] it was 6.90.

`COc1cccc(-c2nccnc2C(=O)N2CCC[C@H]2c2nc(-c3cccc(Cl)c3C)no2)c1` [compound 128]: the results for the pIC50 in assay [1] and in assay [2] (setting [4]) were 6.70 and 6.74, respectively.

`Cc1ccc(C(=O)N2CCC[C@H]2c2nc(-c3cccc(Cl)c3C)no2)c(-n2nccn2)c1C` [compound 129]: the pIC50 was 6.38 in assay [1] and 6.54 in assay [2] (setting [4]).

For the compound `COc1cc(C(=O)N2CCC[C@H]2c2nc(-c3cccc(Cl)c3C)no2)c(-n2nccn2)cc1F` [compound 130], the results for the pIC50 in assay [1] (setting [3]) and in assay [2] (setting [4]) were 6.73 and 7.80, respectively.

Turning to `Cc1ccc(-c2ncco2)c(C(=O)N2CCC[C@H]2c2nc(-c3cccc(Cl)c3C)no2)c1` [compound 131], the pIC50 in assay [1] is 7.35; in assay [2], 8.10.

Consider `Cc1cc(F)cc(C(=O)N2CCC[C@H]2c2nc(-c3cccc(Cl)c3C)no2)c1-n1nccn1` [compound 132], for which the pIC50 in assay [1] (setting [3]) was 6.08; in assay [2] it was 6.60.

On to `COc1cc(C(=O)N2CCC[C@H]2c2nc(-c3cccc(Cl)c3C)no2)c(-n2nccn2)cc1OC` [compound 133], for which the pIC50 in assay [1] (setting [3]) was 6.28; in assay [2] (setting [4]) it was 7.44.

As for `Cc1noc(-c2ccccc2C(=O)N2CCC[C@H]2c2nc(-c3ccccc3OC(F)(F)F)no2)n1` [compound 134], the pIC50 in assay [1] (setting [3]) is 6.56; in assay [2] (setting [4]), 6.66.

In the case of `O=C(c1ccccc1-c1ccccc1)N1CCC[C@H]1c1nc(-c2ccccc2OC(F)(F)F)no1` [compound 135, Biphenyl-2-yl-{(S)-2-[3-(2-trifluoromethoxy-phenyl)-[1,2,4]oxadiazol-5-yl]-pyrrolidin-1-yl}-methanone], the pIC50 is 7.22 in assay [1] (setting [3]) and 7.77 in assay [2] (setting [4]).

Turning to `Cc1ccc(-c2ccccc2)c(C(=O)N2CCC[C@H]2c2nc(-c3ccccc3OC(F)(F)F)no2)c1` [compound 136, (4-Methyl-biphenyl-2-yl)-{(S)-2-[3-(2-trifluoromethoxy-phenyl)-[1,2,4]oxadiazol-5-yl]-pyrrolidin-1-yl}-methanone], the pIC50 in assay [1] (setting [3]) is 7.92; in assay [2] (setting [4]) it was 8.05.

With `Cc1ccc(-n2cccn2)c(C(=O)N2CCC[C@H]2c2nc(-c3ccccc3OC(F)(F)F)no2)c1` [compound 137, (5-Methyl-2-pyrazol-1-yl-phenyl)-{(S)-2-[3-(2-trifluoromethoxy-phenyl)-[1,2,4]oxadiazol-5-yl]-pyrrolidin-1-yl}-methanone], the pIC50 in assay [1] (setting [3]) was 7.48; in assay [2] (setting [4]) it was 7.64.

Regarding `Cc1ccc(-c2ccccn2)c(C(=O)N2CCC[C@H]2c2nc(-c3ccccc3OC(F)(F)F)no2)c1` [compound 138, (5-Methyl-2-pyridin-2-yl-phenyl)-{(S)-2-[3-(2-trifluoromethoxy-phenyl)-[1,2,4]oxadiazol-5-yl]-pyrrolidin-1-yl}-methanone], the results for the pIC50 in assay [1] (setting [3]) and in assay [2] (setting [4]) were 7.31 and 7.52, respectively.

Take `Cc1cccc(-c2oc(C)nc2C(=O)N2CCC[C@H]2c2nc(-c3ccccc3OC(F)(F)F)no2)c1` [compound 139, (2-Methyl-5-m-tolyl-oxazol-4-yl)-{(S)-2-[3-(2-trifluoromethoxy-phenyl)-[1,2,4]oxadiazol-5-yl]-pyrrolidin-1-yl}-methanone]: the figures for the negative logarithm of the IC50 (pIC50) in assay [1] (setting [3]) and in assay [2] (setting [4]) were 6.91 and 7.21, respectively.

Take `Cc1cccc(-c2ocnc2C(=O)N2CCC[C@H]2c2nc(-c3ccccc3OC(F)(F)F)no2)c1` [compound 140, (5-m-Tolyl-oxazol-4-yl)-{(S)-2-[3-(2-trifluoromethoxy-phenyl)-[1,2,4]oxadiazol-5-yl]-pyrrolidin-1-yl}-methanone]: the pIC50 was 7.00 in assay [1] (setting [3]) and 7.35 in assay [2] (setting [4]).

With `O=C(c1ccccc1-n1nccn1)N1CCC[C@H]1c1nc(-c2ccccc2OC(F)(F)F)no1` [compound 141, (2-[1,2,3]Triazol-2-yl-phenyl)-{(S)-2-[3-(2-trifluoromethoxy-phenyl)-[1,2,4]oxadiazol-5-yl]-pyrrolidin-1-yl}-methanone], the pIC50 was 7.23 in assay [1] (setting [3]) and 7.54 in assay [2] (setting [4]).

Regarding `O=C(c1ncsc1-c1cccc(Cl)c1)N1CCC[C@H]1c1nc(-c2ccccc2OC(F)(F)F)no1` [compound 142], the pIC50 in assay [1] (setting [3]) was 6.91; in assay [2] (setting [4]), 7.10.

For the compound `O=C(c1cc(Cl)ccc1-n1nccn1)N1CCC[C@H]1c1nc(-c2ccccc2OC(F)(F)F)no1` [compound 143], the pIC50 in assay [1] (setting [3]) is 7.33; in assay [2], 7.47.

Consider `COc1ccc(-n2nccn2)c(C(=O)N2CCC[C@H]2c2nc(-c3ccccc3OC(F)(F)F)no2)c1F` [compound 144, (2-Fluoro-3-methoxy-6-[1,2,3]triazol-2-yl-phenyl)-{(S)-2-[3-(2-trifluoromethoxy-phenyl)-[1,2,4]oxadiazol-5-yl]-pyrrolidin-1-yl}-methanone], for which the pIC50 in assay [1] (setting [3]) is 7.59; in assay [2] (setting [4]), 7.08.

Consider `Cc1ccc(-n2nccn2)c(C(=O)N2CCC[C@H]2c2nc(-c3ccccc3OC(F)(F)F)no2)c1F` [compound 145, (2-Fluoro-3-methyl-6-[1,2,3]triazol-2-yl-phenyl)-{(S)-2-[3-(2-trifluoromethoxy-phenyl)-[1,2,4]oxadiazol-5-yl]-pyrrolidin-1-yl}-methanone], for which the pIC50 was 7.72 in assay [1] (setting [3]) and 7.82 in assay [2] (setting [4]).

For `Cc1ccc(C(=O)N2CCC[C@H]2c2nc(-c3ccccc3OC(F)(F)F)no2)c(-n2nccn2)c1` [compound 147, (4-Methyl-2-[1,2,3]triazol-2-yl-phenyl)-{(S)-2-[3-(2-trifluoromethoxy-phenyl)-[1,2,4]oxadiazol-5-yl]-pyrrolidin-1-yl}-methanone], the pIC50 in assay [1] (setting [3]) was 7.51; in assay [2] (setting [4]), 7.82.

For `O=C(c1cc(C(F)(F)F)ccc1-n1nccn1)N1CCC[C@H]1c1nc(-c2ccccc2OC(F)(F)F)no1` [compound 148, (2-[1,2,3]Triazol-2-yl-5-trifluoromethyl-phenyl)-{(S)-2-[3-(2-trifluoromethoxy-phenyl)-[1,2,4]oxadiazol-5-yl]-pyrrolidin-1-yl}-methanone], the pIC50 in assay [1] (setting [3]) was 6.62; in assay [2] (setting [4]), 6.55.

For `Cc1cccc(-n2nccn2)c1C(=O)N1CCC[C@H]1c1nc(-c2ccccc2OC(F)(F)F)no1` [compound 149, (2-Methyl-6-[1,2,3]triazol-2-yl-phenyl)-{(S)-2-[3-(2-trifluoromethoxy-phenyl)-[1,2,4]oxadiazol-5-yl]-pyrrolidin-1-yl}-methanone], the pIC50 in assay [1] (setting [3]) is 6.74; in assay [2] (setting [4]), 7.07.

For the compound `O=C(c1cc(OC(F)(F)F)ccc1-n1nccn1)N1CCC[C@H]1c1nc(-c2ccccc2OC(F)(F)F)no1` [compound 150, (2-[1,2,3]Triazol-2-yl-5-trifluoromethoxy-phenyl)-{(S)-2-[3-(2-trifluoromethoxy-phenyl)-[1,2,4]oxadiazol-5-yl]-pyrrolidin-1-yl}-methanone], the pIC50 was 6.34 in assay [1] (setting [3]) and 6.47 in assay [2] (setting [4]).

In the case of `COc1ccc(-n2nccn2)c(C(=O)N2CCC[C@H]2c2nc(-c3ccccc3OC(F)(F)F)no2)c1` [compound 151, (5-Methoxy-2-[1,2,3]triazol-2-yl-phenyl)-{(S)-2-[3-(2-trifluoromethoxy-phenyl)-[1,2,4]oxadiazol-5-yl]-pyrrolidin-1-yl}-methanone], the pIC50 in assay [1] (setting [3]) and in assay [2] (setting [4]) was 7.57 each time.
